“Also recorded” adds a separate entry of the source.
What was measured:
[1] = system: HEK293A cells; assay: Influence of compounds on topotecan cytotoxicity, HEK293A; type: cell-based, human
Experimental: (§1) Then, we tested the ability of the adamantane–monoterpenoid derivatives to sensitize cells to the action of topotecan. For this, we chose a low-toxic concentration 20 μM and varied the concentrations of topotecan (Supplementary Figure S3).
(§2) In the reverse experiment, when the concentrations of the compounds were varied with 30 nM topotecan (in the experiments with HEK293A cells) or 3 μM topotecan (in the experiments with HeLa cells), respectively, a noticeable synergistic effect on HeLa cells was already observed at low concentrations of TDP1 inhibitors (1 and 5 μM) (Supplementary Figure S4). Given that the IC50 values for these compounds are >5 μM, this also indicates the presence of other targets in addition to TDP1.
(§3) The cytotoxicity of the compounds to HeLa (human cervical cancer) and HEK293A (human embryonic kidney) cell lines was examined using the EZ4U Cell Proliferation and Cytotoxicity Assay (Biomedica, Vienna, Austria), according to the manufacturer’s protocols. The cells were grown in DMEM (Dulbecco’s Modified Eagle’s Medium) with 50 IU/mL penicillin, 50 μg/mL streptomycin (MP Biomedicals, Santa Ana, CA, USA), and 10% of fetal bovine serum (Biolot, St. Petersburg, Russia) in a 5% CO2 atmosphere. After formation of a 30–50%-monolayer, the tested compounds were added to the medium. The volume of the added reagents was 1/100 of the total volume of the culture medium, and the amount of DMSO (Sigma, St. Louis, MO, USA) was 1% of the final volume. The cell culture was monitored for 3 days. To assess the influence of the inhibitors on the cytotoxic effect of topotecan (Selleck Chemicals, Houston, TX, USA), 50% cytotoxic concentrations of topotecan and of each inhibitor were determined to attain a defined single-agent effect. Then, a minimum of two independent tests were performed with each inhibitor in combination with topotecan. When using a combination of drugs, TDP1 inhibitors were first added, then topotecan was added immediately (within 10–15 min).

[2] = Intrinsic cytotoxicity, EZ4U assay, HeLa; type: cell-based, human; conditions: human, HeLa cells, compound alone, 3 days
Experimental: (§4) Next, we tested the compounds’ intrinsic toxicity against cervical cancer HeLa cells and non-cancerous HEK293A immortalized human embryonic kidney cells using the EZ4U assay format.
as §3

[3] = system: HeLa cells; assay: Intrinsic cytotoxicity, EZ4U assay, HeLa; type: cell-based, human; conditions: HeLa and HEK293A cells
Experimental: as §4, §3

[4] = biological target: TDP1 (Homo sapiens, UniProt Q9NUW8); assay: TDP1 activity, real-time fluorescence biosensor assay; type: biochemical
Sequence of TDP1 (Q9NUW8 whole entry): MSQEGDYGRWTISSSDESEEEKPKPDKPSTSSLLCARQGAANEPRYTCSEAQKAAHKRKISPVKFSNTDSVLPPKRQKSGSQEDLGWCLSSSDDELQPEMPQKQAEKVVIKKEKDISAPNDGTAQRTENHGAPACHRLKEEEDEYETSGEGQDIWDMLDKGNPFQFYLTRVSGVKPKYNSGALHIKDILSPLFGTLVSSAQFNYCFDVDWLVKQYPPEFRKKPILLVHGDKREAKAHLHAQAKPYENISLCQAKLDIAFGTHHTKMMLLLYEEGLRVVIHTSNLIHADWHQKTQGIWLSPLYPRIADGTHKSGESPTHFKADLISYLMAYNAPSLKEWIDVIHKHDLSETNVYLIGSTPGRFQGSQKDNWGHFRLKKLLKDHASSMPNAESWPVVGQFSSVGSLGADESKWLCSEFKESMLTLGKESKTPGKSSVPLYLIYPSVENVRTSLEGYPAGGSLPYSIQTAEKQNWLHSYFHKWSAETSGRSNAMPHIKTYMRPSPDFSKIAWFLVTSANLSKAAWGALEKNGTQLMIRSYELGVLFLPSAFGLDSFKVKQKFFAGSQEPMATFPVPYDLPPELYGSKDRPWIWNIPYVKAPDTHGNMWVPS

[5] = Intrinsic cytotoxicity, EZ4U assay, HEK293A; type: cell-based; conditions: human, HEK293A cells, compound alone
Experimental: as §4, §3

[6] = system: HeLa cells; assay: Combination index (CI) of topotecan and TDP1 inhibitors, CompuSyn; type: cell-based, human
Experimental: For HeLa cells, we calculated the combination index (CI), the parameter that is used to determine the degree of drug interaction. The combination index (CI) values for the different concentrations (Supplementary Figure S3) of topotecan and TDP1 inhibitors were less than one, and for some compounds less than 0.1 (Supplementary Table S1). This indicates a strong synergistic effect of topotecan and […]. The CI values were calculated with the CompuSyn version 1.0 software.
as §3

[7] = Influence of compounds on topotecan cytotoxicity, HEK293A; type: cell-based, human; conditions: human, HEK293A cells; topotecan alone; read-out: Tpc CC50 HEK293A
Experimental: as §1, §2, §3

[8] = system: HeLa cells; assay: Influence of compounds on topotecan cytotoxicity, HeLa; type: cell-based; conditions: Homo sapiens, topotecan alone, read-out: Tpc CC50 HeLa
Experimental: as §1, §2
The cytotoxicity of the compounds to HeLa (human cervical cancer) and HEK293A (human embryonic kidney) cell lines was examined using the EZ4U Cell Proliferation and Cytotoxicity Assay (Biomedica, Vienna, Austria), according to the manufacturer’s protocols. […] The cell culture was monitored for 3 days. To assess the influence of the inhibitors on the cytotoxic effect of topotecan (Selleck Chemicals, Houston, TX, USA), 50% cytotoxic concentrations of topotecan and of each inhibitor were determined to attain a defined single-agent effect. […]

| Structure (SMILES) | melting point [°C] | CC50 at 3 days [2] [µM] | intrinsic toxicity (in words) [3] | IC50 [4] [µM] | CC50 at 3 days [5] [µM] | Effect ([6]; Tpc 0.3 µM + 20 µM compound) | Effect ([6]; Tpc 0.6 µM + 20 µM compound) | CI ([6]; Tpc 2.5 µM + 20 µM compound) | Effect ([6]; Tpc 2.5 µM + 20 µM compound) | CI ([6]; Tpc 5.0 µM + 20 µM compound) | Effect ([6]; Tpc 5.0 µM + 20 µM compound) | Effect ([6]; Tpc […] + 20 µM compound) | also measured |
| --- | --- | --- | --- | --- | --- | --- | --- | --- | --- | --- | --- | --- | --- |
| CC1=CC[C@H](CCSc2nc(C34CC5CC(CC(C5)C3)C4)n[nH]2)C1(C)C [14a, 3-(Adamantan-1-yl)-5-((2-((R)-2,2,3-trimethylcyclopent-3-en-1-yl)ethyl)thio)-1H-1,2,4-triazole] | 113.5 | 53 ± 8 | moderate toxicity | 5.5 ± 1.5 | 47 ± 3 | 0.17 | 0.47 | 0.4461 | 0.92 | 0.7177 | 0.96 | 0.81 | effect on the action of topotecan on HEK293A cells (in words) [1]: protected HEK293A cells from the action of topotecan; CI ([6]; Tpc […] + 20 µM compound): 0.2872 |
| CC1=CC[C@@H](CCSc2nc(C34CC5CC(CC(C5)C3)C4)n[nH]2)C1(C)C [14b, 3-(Adamantan-1-yl)-5-((2-((S)-2,2,3-trimethylcyclopent-3-en-1-yl)ethyl)thio)-1H-1,2,4-triazole] | 111.8 to 112.4 | 54 ± 7 | moderate toxicity | 6.1 ± 0.1 | 50 ± 3 | 0.94 |  |  |  |  |  |  | CI ([6]; Tpc 0.3 µM + 20 µM compound): 0.00419; CI ([6]; Tpc 0.5 µM + 20 µM compound): 0.00165; Effect ([6]; Tpc 0.5 µM + 20 µM compound): 0.97; CI ([6]; Tpc 1.0 µM + 20 µM compound): 0.00117; Effect ([6]; Tpc 1.0 µM + 20 µM compound): 0.98; CI ([6]; Tpc 2.0 µM + 20 µM compound): 0.00166; Effect ([6]; Tpc 2.0 µM + 20 µM compound): 0.98; CI ([6]; Tpc 4.0 µM + 20 µM compound): 0.00113; Effect ([6]; Tpc 4.0 µM + 20 µM compound): 0.99 |
| CC1=CC[C@H](CC(=O)Nc2nnc(C34CC5CC(CC(C5)C3)C4)s2)C1(C)C [15a, N-(5-(Adamantan-1-yl)-1,3,4-thiadiazol-2-yl)-2-((R)-2,2,3-trimethylcyclopent-3-en-1-yl)acetamide] | 209.2 to 210.1 | > 100 |  | 6.1 ± 2.6 | > 100 |  |  |  |  |  |  |  | Effect ([6]; Tpc 0.3 µM + 50 µM compound): 0.27; CI ([6]; Tpc 0.5 µM + 50 µM compound): 0.07887; Effect ([6]; Tpc 0.5 µM + 50 µM compound): 0.53; CI ([6]; Tpc 1.0 µM + 50 µM compound): 0.06365; Effect ([6]; Tpc 1.0 µM + 50 µM compound): 0.73; CI ([6]; Tpc 2.0 µM + 50 µM compound): 0.06893; Effect ([6]; Tpc 2.0 µM + 50 µM compound): 0.83; CI ([6]; Tpc 4.0 µM + 50 µM compound): 0.07307; Effect ([6]; Tpc 4.0 µM + 50 µM compound): 0.9 |
| CC1=CC[C@@H](CC(=O)Nc2nnc(C34CC5CC(CC(C5)C3)C4)s2)C1(C)C [15b, N-(5-(Adamantan-1-yl)-1,3,4-thiadiazol-2-yl)-2-((S)-2,2,3-trimethylcyclopent-3-en-1-yl)acetamide] | 210.9 | > 100 |  | ~5 | > 100 |  |  |  |  |  |  |  | effect on the action of topotecan on HEK293A cells (in words) [1]: protected HEK293A cells from the action of topotecan; Effect ([6]; Tpc 0.3 µM + 50 µM compound): 0.48; CI ([6]; Tpc 0.5 µM + 50 µM compound): 0.05563; Effect ([6]; Tpc 0.5 µM + 50 µM compound): 0.69; CI ([6]; Tpc 1.0 µM + 50 µM compound): 0.04653; Effect ([6]; Tpc 1.0 µM + 50 µM compound): 0.84; CI ([6]; Tpc 2.0 µM + 50 µM compound): 0.05382; Effect ([6]; Tpc 2.0 µM + 50 µM compound): 0.9; CI ([6]; Tpc 4.0 µM + 50 µM compound): 0.09564; Effect ([6]; Tpc 4.0 µM + 50 µM compound): 0.91 |
| CC[C@@]1(O)C(=O)OCc2c1cc1n(c2=O)Cc2cc3c(CN(C)C)c(O)ccc3nc2-1 [Tpc, topotecan] |  |  |  |  |  |  |  |  |  |  |  |  | CC50 at 3 days [7]: 0.066 ± 0.028 µM; CC50 [8]: 4 ± 1.3 µM |
| CC1(C)[C@@H]2CC[C@@]1(C(=O)Nc1nnc(C34CC5CC(CC(C5)C3)C4)s1)C(=O)C2 [compound 16, (1S,4R)-N-(5-(Adamantan-1-yl)-1,3,4-thiadiazol-2-yl)-7,7-dimethyl-2-oxobicyclo[2.2.1]heptane-1-carboxamide] | 269.6 | 20 ± 8 | moderate toxicity | > 30 | 23 ± 10 | 0.035 | 0.1 | 0.5114 | 0.75 | 0.8721 | 0.85 | 0.36 | anti-TDP1 activity (in words) [4]: not exhibiting anti-TDP1 activity; also recorded: ineffective |
| CC1(C)[C@@H]2CC[C@@]1(CS(=O)(=O)Nc1nnc(C34CC5CC(CC(C5)C3)C4)s1)C(=O)C2 [compound 17, N-(5-(Adamantan-1-yl)-1,3,4-thiadiazol-2-yl)-1-((1S,4R)-7,7-dimethyl-2-oxobicyclo[2.2.1]heptan-1-yl)methanesulfonamide] | 200.3 to 200.5 | 100 ± 20 |  | > 30 | > 100 | 1.0E-4 | 0.02 | 0.7924 | 0.6 | 1.176 | 0.81 | 0.25 | anti-TDP1 activity (in words) [4]: not exhibiting anti-TDP1 activity; also recorded: ineffective |

From publication PMC9182348, “Adamantane-Monoterpenoid Conjugates Linked via Heterocyclic Linkers Enhance the Cytotoxic Effect of Topotecan” (Molecules, 2022)
